Test results taken from publication PMC3083694, “Effects of Intermediates between Vitamins K2 and K3 on Mammalian DNA Polymerase Inhibition and Anti-Inflammatory Activity” (International Journal of Molecular Sciences, 2011).

What was measured:
[1] = target: Cherry salmon DNA polymerase δ (Oncorhynchus masou, UniProt Z9UCE0HTX2); assay: DNA polymerase activity assay, cherry salmon pol δ; format: biochemical; conditions: fish pol; read-out: IC50 Value of MK-2, Cherry salmon DNA polymerase δ
Description: (§1) Pols from mammals, a fish (cherry salmon), an insect (fruit fly) and a plant (cauliflower) were purified, and prokaryotic pols and other DNA metabolic enzymes, such as T7 RNA polymerase, T4 polynucleotide kinase and bovine deoxyribonuclease I, were purchased as described in our previous report. The activities of all pols and other DNA metabolic enzymes were measured as described in previous reports.
(§2) The components of the pol assay were poly(dA)/oligo(dT)18 and dTTP as the DNA template-primer and 2′-deoxyribonucleoside 5′-triphosphate (dNTP) substrate, respectively. VK2, VK3, and their synthesized derivatives (i.e., MK-3, MK-2 and MK-1) were dissolved in dimethyl sulfoxide (DMSO) at various concentrations and sonicated for 30 s. The sonicated samples (4 μL) were mixed with 16 μL of each pol enzyme (final amount, 0.05 units) in 50 mM Tris-HCl (pH 7.5) containing 1 mM dithiothreitol, 50% glycerol and 0.1 mM EDTA, and kept at 0 °C for 10 min. […] Activity without the inhibitor was considered to be 100%, and the activity remaining at each concentration of inhibitor was determined relative to this value. […]

[2] = target: X-family pols (mammalian); assay: DNA polymerase activity assay, mammalian X-family pols; format: biochemical, mammals; conditions: range over mammalian X-family pols β, λ, TdT; read-out: 50% inhibition of the X family of pols
Description: as §1, §2

T4 DNA polymerase = target: T1, T4 DNA polymerase (Enterobacteria phage T4, UniProt P04415); assay: DNA polymerase activity assay, T4 pol; format: biochemical; conditions: prokaryotic pol; read-out: IC50 Value of MK-2, T4 DNA polymerase
T1 construct: purchased
T1 sequence (P04415 whole entry): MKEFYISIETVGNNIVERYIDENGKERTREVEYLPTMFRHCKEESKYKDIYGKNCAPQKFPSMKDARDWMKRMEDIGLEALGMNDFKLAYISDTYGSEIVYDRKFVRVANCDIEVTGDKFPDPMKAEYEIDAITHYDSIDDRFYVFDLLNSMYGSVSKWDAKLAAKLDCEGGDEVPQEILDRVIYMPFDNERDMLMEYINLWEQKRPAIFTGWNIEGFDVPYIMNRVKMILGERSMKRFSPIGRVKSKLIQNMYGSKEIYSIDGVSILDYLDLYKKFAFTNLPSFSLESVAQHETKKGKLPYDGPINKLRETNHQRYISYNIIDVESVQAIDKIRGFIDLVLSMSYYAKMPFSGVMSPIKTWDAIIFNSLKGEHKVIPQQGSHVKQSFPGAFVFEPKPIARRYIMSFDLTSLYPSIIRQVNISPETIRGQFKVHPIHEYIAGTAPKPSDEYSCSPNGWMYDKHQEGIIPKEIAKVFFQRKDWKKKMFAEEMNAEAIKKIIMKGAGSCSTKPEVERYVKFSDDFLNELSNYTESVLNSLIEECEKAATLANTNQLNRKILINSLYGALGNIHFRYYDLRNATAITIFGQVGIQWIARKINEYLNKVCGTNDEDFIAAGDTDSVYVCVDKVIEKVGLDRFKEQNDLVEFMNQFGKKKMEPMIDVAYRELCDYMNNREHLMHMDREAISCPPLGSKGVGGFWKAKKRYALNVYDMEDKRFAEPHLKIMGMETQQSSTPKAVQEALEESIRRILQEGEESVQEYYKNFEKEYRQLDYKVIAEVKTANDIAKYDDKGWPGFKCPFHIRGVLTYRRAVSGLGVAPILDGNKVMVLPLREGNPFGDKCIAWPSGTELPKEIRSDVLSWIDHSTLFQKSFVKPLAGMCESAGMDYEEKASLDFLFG
Description: as §1, §2

Taq DNA polymerase = target: T2, Taq DNA polymerase (Thermus aquaticus, UniProt P19821); assay: DNA polymerase activity assay, Taq pol; format: biochemical; conditions: prokaryotic pol; incubated at 74 °C; read-out: IC50 Value of MK-2, Taq DNA polymerase
T2 construct: purchased
Description: as §1, §2

[3] = target: T3, Fruit fly DNA polymerase δ (Drosophila melanogaster, UniProt P54358); assay: DNA polymerase activity assay, fruit fly pol δ; format: biochemical; conditions: insect pol; read-out: IC50 Value of MK-2, Fruit fly DNA polymerase δ
T3 construct: made in house
T3 sequence (P54358 whole entry): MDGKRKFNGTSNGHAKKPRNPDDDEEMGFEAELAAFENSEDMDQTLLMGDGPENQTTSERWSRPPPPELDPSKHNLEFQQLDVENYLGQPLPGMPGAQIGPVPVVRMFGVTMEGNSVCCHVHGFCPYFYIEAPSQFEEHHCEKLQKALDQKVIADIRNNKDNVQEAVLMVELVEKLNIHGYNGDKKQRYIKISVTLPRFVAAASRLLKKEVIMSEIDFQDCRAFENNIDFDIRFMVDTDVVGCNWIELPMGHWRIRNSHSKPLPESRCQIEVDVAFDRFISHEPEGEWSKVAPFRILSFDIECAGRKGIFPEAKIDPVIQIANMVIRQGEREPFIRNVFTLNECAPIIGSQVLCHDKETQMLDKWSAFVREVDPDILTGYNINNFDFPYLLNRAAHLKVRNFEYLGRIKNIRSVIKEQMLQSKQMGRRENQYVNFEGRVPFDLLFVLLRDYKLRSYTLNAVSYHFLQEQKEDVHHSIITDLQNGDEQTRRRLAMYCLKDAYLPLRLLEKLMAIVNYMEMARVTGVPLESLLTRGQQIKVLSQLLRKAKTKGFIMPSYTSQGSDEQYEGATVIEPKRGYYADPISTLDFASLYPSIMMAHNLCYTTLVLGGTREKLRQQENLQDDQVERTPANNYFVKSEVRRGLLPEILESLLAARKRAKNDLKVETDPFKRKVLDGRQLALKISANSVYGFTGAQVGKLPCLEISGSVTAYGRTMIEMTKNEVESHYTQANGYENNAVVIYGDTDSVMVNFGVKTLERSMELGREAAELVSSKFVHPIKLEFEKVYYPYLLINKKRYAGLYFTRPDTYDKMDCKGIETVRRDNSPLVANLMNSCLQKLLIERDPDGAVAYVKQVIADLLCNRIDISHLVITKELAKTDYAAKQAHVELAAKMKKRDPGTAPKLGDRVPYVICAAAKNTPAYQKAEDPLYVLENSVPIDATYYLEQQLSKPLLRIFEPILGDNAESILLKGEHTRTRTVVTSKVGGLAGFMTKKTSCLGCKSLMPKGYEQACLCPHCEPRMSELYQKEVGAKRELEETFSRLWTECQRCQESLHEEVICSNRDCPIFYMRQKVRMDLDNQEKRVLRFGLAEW
Description: as §1, §2

[4] = target: T4, Bovine deoxyribonuclease I (Bos taurus, UniProt P00639); assay: DNA metabolic enzyme assay, bovine deoxyribonuclease I; format: biochemical; conditions: other DNA metabolic enzyme; read-out: IC50 Value of MK-2, Bovine deoxyribonuclease I
T4 construct: purchased
Description: as §1

[5] = test system: nuclear translocation of NF-κB p65 in RAW264.7 cells; assay: LPS-induced nuclear translocation of NF-κB p65 (Western blot); format: cell-based, mouse; conditions: 10 μM MK-2 30 min, then 100 ng/mL LPS 30 min, LPS alone 4.47-fold
Description: RAW264.7 cells on a 6-well plate at 5 × 10^5 cells/well were incubated with 10 μM of MK-2 or DMSO (1 μL/mL) as a vehicle control for 30 min, followed by treatment with 100 ng/mL of LPS for 30 min. After treatment, cells were harvested with lysis buffer consisting of 10 mM Hepes (pH 7.9), 10 mM KCl, 1.5 mM MgCl2 and 0.5 mM DTT containing protease inhibitors (1 mM phenylmethylsulfonyl fluoride [PMSF], 5 μg/mL of leupeptin and 5 μg/mL of aprotinin) and phosphatase inhibitors (10 mM NaF and 1 mM Na3VO4) and stood on ice for 15 min with occasional mixing. The mixture was centrifuged at 1000 × g for 10 min at 4 °C. […] The protein concentration was measured by using a bicinchoninic acid (BCA) assay kit in accordance with the manufacturer’s protocol. […]
The nuclear proteins (30–50 μg of protein) were boiled in a quarter-volume of sample buffer (1 M Tris-HCl [pH 7.5], 640 mM 2-mercaptoethanol, 0.2% bromphenol blue, 4% SDS and 20% glycerol) and then separated on 10% SDS polyacrylamide gels. […] The protein-antibody complex was visualized with ChemiLumiONE (Nacalai Tesque, Kyoto, Japan) and detected using an Image Reader (LAS-3000 Imaging System, Fuji Photo Film, Tokyo, Japan). The intensity of each band was analyzed using ImageJ, which was developed at the National Institute of Health.

[6] = target: Cauliflower DNA polymerase α (Brassica oleracea var. botrytis, UniProt A0A0D3D890); assay: DNA polymerase activity assay, cauliflower pol α; format: biochemical; conditions: plant pol; read-out: IC50 Value of MK-2, Cauliflower DNA polymerase α
Sequence of Cauliflower DNA polymerase α (A0A0D3D890 entry or part of it): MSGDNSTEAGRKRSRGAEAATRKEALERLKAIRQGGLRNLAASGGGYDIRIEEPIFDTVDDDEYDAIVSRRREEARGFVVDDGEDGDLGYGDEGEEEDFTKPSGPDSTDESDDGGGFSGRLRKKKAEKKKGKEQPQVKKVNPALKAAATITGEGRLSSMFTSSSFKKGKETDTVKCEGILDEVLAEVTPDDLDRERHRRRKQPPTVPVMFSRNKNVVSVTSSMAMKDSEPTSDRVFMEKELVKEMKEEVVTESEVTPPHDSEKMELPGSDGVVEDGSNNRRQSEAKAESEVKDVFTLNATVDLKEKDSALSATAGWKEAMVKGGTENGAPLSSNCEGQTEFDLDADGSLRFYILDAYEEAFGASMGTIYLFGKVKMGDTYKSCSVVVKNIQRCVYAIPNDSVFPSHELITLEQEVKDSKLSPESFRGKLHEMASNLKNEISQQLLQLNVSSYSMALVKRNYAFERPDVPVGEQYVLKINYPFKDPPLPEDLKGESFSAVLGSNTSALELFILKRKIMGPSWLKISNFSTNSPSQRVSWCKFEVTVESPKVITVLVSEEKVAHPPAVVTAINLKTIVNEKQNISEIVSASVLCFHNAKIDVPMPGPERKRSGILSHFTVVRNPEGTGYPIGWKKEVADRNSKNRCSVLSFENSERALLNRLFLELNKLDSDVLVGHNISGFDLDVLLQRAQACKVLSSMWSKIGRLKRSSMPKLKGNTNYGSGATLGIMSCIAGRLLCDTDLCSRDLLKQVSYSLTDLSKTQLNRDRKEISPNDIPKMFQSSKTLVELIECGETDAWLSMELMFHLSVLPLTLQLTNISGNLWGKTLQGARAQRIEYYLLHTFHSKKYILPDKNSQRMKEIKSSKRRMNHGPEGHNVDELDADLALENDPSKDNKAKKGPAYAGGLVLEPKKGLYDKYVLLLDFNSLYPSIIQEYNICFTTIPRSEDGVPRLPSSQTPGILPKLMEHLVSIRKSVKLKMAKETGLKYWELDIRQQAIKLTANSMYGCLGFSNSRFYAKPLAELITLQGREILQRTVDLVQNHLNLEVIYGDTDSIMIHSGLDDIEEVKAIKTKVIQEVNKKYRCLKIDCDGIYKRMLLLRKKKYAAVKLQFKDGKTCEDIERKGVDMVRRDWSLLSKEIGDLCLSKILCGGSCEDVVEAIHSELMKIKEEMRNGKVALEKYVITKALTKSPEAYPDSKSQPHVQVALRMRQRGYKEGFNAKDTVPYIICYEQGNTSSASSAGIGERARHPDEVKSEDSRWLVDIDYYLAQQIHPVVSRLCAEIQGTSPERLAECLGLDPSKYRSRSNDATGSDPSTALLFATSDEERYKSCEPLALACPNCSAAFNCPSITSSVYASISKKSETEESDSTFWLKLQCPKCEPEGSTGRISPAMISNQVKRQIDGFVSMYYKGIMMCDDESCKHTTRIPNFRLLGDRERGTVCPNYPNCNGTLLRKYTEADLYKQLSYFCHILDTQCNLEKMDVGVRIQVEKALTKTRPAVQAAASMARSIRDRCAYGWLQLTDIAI
Description: as §1, §2

Sequence of Cherry salmon DNA polymerase δ (Z9UCE0HTX2 1-856): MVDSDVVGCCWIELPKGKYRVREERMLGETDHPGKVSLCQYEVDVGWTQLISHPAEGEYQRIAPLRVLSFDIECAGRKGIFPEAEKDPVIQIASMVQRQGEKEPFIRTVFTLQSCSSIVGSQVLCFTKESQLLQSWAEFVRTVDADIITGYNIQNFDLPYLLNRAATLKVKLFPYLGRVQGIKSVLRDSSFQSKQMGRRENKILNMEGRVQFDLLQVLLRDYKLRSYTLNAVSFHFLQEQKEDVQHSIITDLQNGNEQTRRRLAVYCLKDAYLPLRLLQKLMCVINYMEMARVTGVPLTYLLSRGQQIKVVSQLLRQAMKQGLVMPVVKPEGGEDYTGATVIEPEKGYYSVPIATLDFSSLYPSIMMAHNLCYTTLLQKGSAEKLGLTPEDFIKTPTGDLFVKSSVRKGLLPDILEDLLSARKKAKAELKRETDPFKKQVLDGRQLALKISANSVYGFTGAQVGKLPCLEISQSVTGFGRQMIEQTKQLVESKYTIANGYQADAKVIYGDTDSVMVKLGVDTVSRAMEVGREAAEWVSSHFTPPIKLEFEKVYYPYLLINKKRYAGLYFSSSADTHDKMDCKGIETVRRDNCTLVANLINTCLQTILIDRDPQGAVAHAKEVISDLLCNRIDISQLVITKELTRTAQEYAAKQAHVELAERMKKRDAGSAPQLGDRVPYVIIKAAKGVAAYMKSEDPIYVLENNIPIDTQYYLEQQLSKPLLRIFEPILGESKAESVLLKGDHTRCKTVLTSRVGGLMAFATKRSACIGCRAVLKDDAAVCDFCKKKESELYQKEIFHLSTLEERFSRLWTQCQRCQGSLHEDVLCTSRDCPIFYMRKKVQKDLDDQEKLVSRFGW

CC(C)=CCC/C(C)=C/CC1=C(C)C(=O)c2ccccc2C1=O [MK-2]
IC50 [1]: 32.5 ± 1.9 µM | IC50 [2]: 24.6 to 31 µM | IC50 (T4 DNA polymerase): > 200 µM | IC50 (Taq DNA polymerase): > 200 µM | IC50 [3]: 36.9 ± 2.2 µM | IC50 [4]: > 200 µM | LPS-stimulated nuclear translocation of NF-κB p65 relative to treatment without LPS [5]: 2.04 fold | IC50 [6]: > 200 µM
